Laboratory results taken from patent publication US20230114241A1, “METHODS OF TREATING EPILEPSY USING THE SAME” (Trevena, Inc., priority 2019, published 2023).

Target: human sphingosine-1-phosphate receptor 1 (S1P1) (Homo sapiens, UniProt P21453)
Assay: Inhibition of cAMP production (HTRF cAMP HiRange), S1P1 CHO-K1 cells
Assay type: cell-based
Conditions: inhibition of cAMP production, S1P1; read-out: hS1P1 CAMP pEC50 (converted)
In short: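 CHO-K1 cells co-expressing human S1P1 (C-terminal ProLink tag) and EA-β-arrestin2, plated overnight; after 30 min compound incubation at 37 °C, intracellular cAMP measured by HTRF TR-FRET following 1 h at room temperature. Values normalized to fingolimod.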

human sphingosine-1-phosphate receptor 1 (S1P1), sequence (P21453 whole entry): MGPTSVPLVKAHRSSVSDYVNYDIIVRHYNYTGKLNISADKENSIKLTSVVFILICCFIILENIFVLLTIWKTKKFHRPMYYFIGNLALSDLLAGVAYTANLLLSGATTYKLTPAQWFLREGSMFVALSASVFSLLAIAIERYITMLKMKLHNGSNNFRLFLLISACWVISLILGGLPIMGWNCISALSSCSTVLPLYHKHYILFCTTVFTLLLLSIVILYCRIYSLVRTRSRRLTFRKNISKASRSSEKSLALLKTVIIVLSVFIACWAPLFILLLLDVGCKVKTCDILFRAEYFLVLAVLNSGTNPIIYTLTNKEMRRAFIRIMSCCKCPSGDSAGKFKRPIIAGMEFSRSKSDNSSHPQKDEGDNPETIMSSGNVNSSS

Row | SMILES | EC50 [nM]
1 | CC(C)Cn1nnc2cc(-c3nc4c(Br)cccc4o3)ccc21 [Compound 461, 4-bromo-2-(1-isobutyl-1H-benzo[d][1,2,3]triazol-5-yl)benzo[d]oxazole] | > 316
2 | Cc1ccc2nc(-c3ccc4c(c3)nnn4C(C)C)oc2c1 [Compound 420, 2-(1-isopropyl-1H-benzo[d][1,2,3]triazol-5-yl)-6-methyl-benzo[d]oxazole] | < 316
3 | COc1cccnc1-c1nc(-c2ccc3c(c2)nnn3C(C)C)no1 [Compound 612, 3-(1-isopropyl-1H-benzo[d][1,2,3]triazol-5-yl)-5-(3-methoxy-pyridin-2-yl)-1,2,4-oxadiazole] | < 316
4 | Cc1ccsc1-c1nc(-c2ccc3c(c2)nnn3C(C)(C)CO)no1 [Compound 611, 2-methyl-2-(5-(5-(3-methylthiophen-2-yl)-1,2,4-oxadiazol-3-yl)-1H-benzo[d] [1,2,3]triazol-1-yl)propan-1-ol] | < 316
5 | N#Cc1cc(-c2nnc(-c3ccc4[nH]cnc4c3)o2)ccc1NC(CF)CF [Compound 600, 5-[5-(1H-1,3-benzo-diazol-5-yl)-1,3,4-oxadiazol-2-yl]-2-[(1,3-difluoropropan-2-yl)amino]benzonitrile] | < 316
6 | CC(C)(CO)n1nnc2cc(-c3noc(-c4cnccc4C(F)(F)F)n3)ccc21 [Compound 644, 2-methyl-2-(5-(5-(4-(trifluoro-methyl)pyridin-3-yl)-1,2,4-oxadiazol-3-yl)-1H-benzo[d][1,2,3]triazol-1-yl)propan-1-ol] | > 316
7 | COc1cc(NC(C)=O)ccc1-c1noc(-c2ccc3c(c2)nnn3C(C)C)n1 [Compound 532, N-(3-methoxy-4-{5-[1-(propan-2-yl)-1H-1,2,3-benzotriazol-5-yl]-1,2,4-oxadiazol-3-yl}phenyl)acetamide] | < 316
8 | CCC1(CC)CC(=O)c2cc(-c3nc(-c4cncc(NS(C)(=O)=O)c4)no3)ccc2O1 [Compound 545, N-(5-(5-(2,2-diethyl-4-oxochroman-6-yl)-1,2,4-oxadiazol-3-yl)pyridin-3-yl)methanesulfonamide] | < 316
9 | Cc1cccc2nc(-c3ccc4c(c3)nnn4C(C)C)oc12 [Compound 421, 2-(1-isopropyl-1H-benzo[d][1,2,3]triazol-5-yl)-7-methyl-benzo[d]oxazole] | > 316
10 | CC(C)n1nnc2cc(-c3nc(-c4cccs4)co3)ccc21 [Compound 459, 1-(propan-2-yl)-5-[4-(thiophen-2-yl)-1,3-oxazol-2-yl]-1H-1,2,3-benzotriazole] | > 316
11 | CC(C)n1nnc2cc(-c3nc(-c4ccccc4N)co3)ccc21 [Compound 438, 2-{2-[1-(propan-2-yl)-1H-1,2,3-benzotriazol-5-yl]-1,3-oxazol-4-yl}aniline] | < 316
12 | CC(C)n1nnc2cc(-c3nc(-c4ccccn4)co3)ccc21 [Compound 474, 1-(propan-2-yl)-5-[4-(pyridin-2-yl)-1,3-oxazol-2-yl]-1H-1,2,3-benzotriazole] | > 316

Same assay, conditions: inhibition of cAMP production; potency; read-out: hS1P1 CAMP pEC50 (converted)

Row | SMILES | EC50 [nM]
13 | COc1cccc(-c2nc(-c3ccc4c(c3)nnn4C(C)C)no2)c1 [Compound 299, 3-(1-isopropylbenzo-triazol-5-yl)-5-(3-methoxyphenyl)-1,2,4-oxadiazole] | > 316
14 | CCC1(CC)CC(=O)c2cc(-c3nc(-c4ccc(C(=O)NC)cc4)no3)ccc2O1 [Compound 185, 4-(5-(2,2-diethyl-4-oxochroman-6-yl)-1,2,4-oxadiazol-3-yl)-N-methylbenzamide] | < 316
15 | C=CCNc1ccc(-c2nc(-c3ccc4[nH]cnc4c3)no2)cc1C#N [Compound 177, 5-(3-(1H-benzo[d]imidazol-5-yl)-1,2,4-oxadiazol-5-yl)-2-(allylamino)benzonitrile] | < 316
16 | Brc1ccccc1-c1noc(-c2ccc3c(c2)nnn3C2CCOCC2)n1 [Compound 233, 5-[3-(2-bromophenyl)-1,2,4-oxadiazol-5-yl]-1-(oxan-4-yl)-1H-1,2,3-benzotriazole] | > 316
17 | COc1ccc(-c2nc(-c3ccc4c(c3)nnn4C(C)C)no2)cc1 [Compound 69, 3-(1-isopropyl-benzotriazol-5-yl)-5-(4-methoxyphenyl)-1,2,4-oxadiazole] | > 316
18 | CCC1(CC)CC(=O)c2cc(-c3nc(-c4ccc5[nH]cnc5c4)no3)ccc2O1 [Compound 211, 6-(3-(1H-benzo[d]imidazol-5-yl)-1,2,4-oxadiazol-5-yl)-2,2-diethylchroman-4-one] | > 316
19 | CC(C)Nc1ccc(-c2nc(-c3ccc4c(c3)CCC(=O)N4)no2)cc1C#N [Compound 259, 2-(isopropylamino)-5-(3-(2-oxo-1,2,3,4-tetrahydroquinolin-6-yl)-1,2,4-oxadiazol-5-yl)benzonitrile] | < 316
20 | CC(C)n1ncc2cc(-c3nc(-c4cccc5c4OCCC5)no3)ccc21 [Compound 337, 3-chroman-8-yl-5-(1-isopropylindazol-5-yl)-1,2,4-oxadiazole] | < 316
21 | Cc1cc(-c2nc(-c3ccc4c(c3)nnn4C(C)C)no2)ccn1 [Compound 86, 3-(1-isopropyl-1H-benzo[d][1,2,3]triazol-5-yl)-5-(2-methyl-pyridin-4-yl)-1,2,4-oxadiazole] | > 316
22 | Cc1ccncc1-c1nc(-c2ccc3c(c2)nnn3C(C)C)no1 [Compound 100, 3-(1-isopropyl-1H-benzo[d][1,2,3]triazol-5-yl)-5-(4-methyl-pyridin-3-yl)-1,2,4-oxadiazole] | > 316
23 | Cc1ccccc1-c1noc(-c2ccc3c(c2)nnn3C2CCCCC2)n1 [Compound 245, 1-cyclohexyl-5-[3-(2-methylphenyl)-1,2,4-oxadiazol-5-yl]-1H-1,2,3-benzotriazole] | > 316
24 | Cn1nnc2cc(-c3noc(-c4ccccc4Br)n3)ccc21 [Compound 73, 5-(2-bromophenyl)-3-(1-methyl-1H-benzo[d][1,2,3]triazol-5-yl)-1,2,4-oxadiazole] | > 316
25 | N#Cc1cc(-c2nnc(-c3ccc4[nH]cnc4c3)o2)ccc1NCC(F)F [Compound 359, 5-[5-(1H-1,3-benzo-diazol-5-yl)-1,3,4-oxadiazol-2-yl]-2-[(2,2-difluoroethyl)amino] benzonitrile] | < 316
26 | CC(C)n1nnc2cc(-c3noc(-c4ccc(COc5ccccc5)cc4)n3)ccc21 [Compound 131, 3-(1-isopropyl-1H-benzo[d][1,2,3]triazol-5-yl)-5-(4-(phenoxy-methyl)phenyl)-1,2,4-oxadiazole] | > 316
27 | C=CCNc1ccc(-c2nc(-c3ccc4c(c3)CC(=O)N4)no2)cc1C#N [Compound 224, 2-(allylamino)-5-(3-(2-oxoindolin-5-yl)-1,2,4-oxadiazol-5-yl)benzonitrile] | < 316
28 | CCC1(CC)CC(=O)c2cc(-c3nc(-c4cccnc4)ns3)ccc2O1 [Compound 309, 2,2-diethyl-6-(3-(pyridin-3-yl)-1,2,4-thiadiazol-5-yl)chroman-4-one] | > 316
29 | CCC1(CC)CC(=O)c2cc(-c3nc(-c4ccnc(OC)c4)no3)ccc2O1 [Compound 38, 2,2-diethyl-6-(3-(2-methoxypyridin-4-yl)-1,2,4-oxadiazol-5-yl)chroman-4-one] | > 316
30 | Cc1ccncc1-c1noc(-c2ccc3c(c2)nnn3C2CC2)n1 [Compound 94, 1-cyclopropyl-5-[3-(4-methylpyridin-3-yl)-1,2,4-oxadiazol-5-yl]-1H-1,2,3-benzotriazole] | > 316
31 | Cc1ccc(-c2noc(-c3ccc4c(c3)nnn4C(C)C)n2)cn1 [Compound 236, 5-[3-(6-methylpyridin-3-yl)-1,2,4-oxadiazol-5-yl]-1-(propan-2-yl)-1H-1,2,3-benzotriazole] | > 316
32 | Brc1ccccc1-c1nc(-c2ccc3c(c2)nnn3Cc2cccnc2)no1 [Compound 283, 5-(2-bromophenyl)-3-(1-(pyridin-3-ylmethyl)-1H-benzo[d][1,2,3]triazol-5-yl)-1,2,4-oxadiazole] | > 316
33 | Brc1ccccc1-c1noc(-c2ccc3c(c2)nnn3C2CC2)n1 [Compound 83, 5-[3-(2-bromophenyl)-1,2,4-oxadiazol-5-yl]-1-cyclopropyl-1H-1,2,3-benzotriazole] | < 316
34 | CCC1(CC)CC(=O)c2cc(-c3nc(-c4ccc(Cl)cc4)no3)ccc2O1 [Compound 68, 6-[3-(4-chlorophenyl)-1,2,4-oxadiazol-5-yl]-2,2-diethyl-chroman-4-one] | > 316
35 | CCCn1nnc2cc(-c3nc(-c4cccc(C(F)(F)F)c4)no3)ccc21 [Compound 242, 1-propyl-5-{3-[3-(trifluoromethyl)phenyl]-1,2,4-oxadiazol-5-yl}-1H-1,2,3-benzotriazole] | > 316
36 | COc1ccc(-c2nc(-c3ccc4c(c3)nnn4C3CCCC3)no2)cc1OC [Compound 275, 3-(1-cyclopentyl-1H-benzo[d][1,2,3]triazol-5-yl)-5-(3,4-dimethoxyphenyl)-1,2,4-oxadiazole] | > 316
37 | Cc1ccsc1-c1noc(-c2ccc3c(c2)nnn3CC(C)(C)O)n1 [Compound 140] | < 316
38 | N#Cc1cc(-c2nnc(-c3ccc4[nH]cnc4c3)o2)ccc1NCC1CC1 [Compound 357, 5-[5-(1H-1,3-benzo-diazol-5-yl)-1,3,4-oxadiazol-2-yl]-2-[(cyclopropylmethyl)amino]benzonitrile] | < 316
39 | Cc1oc(-c2ccc3c(c2)nnn3C(C)C)nc1-c1ccccc1 [Compound 247, 5-(5-methyl-4-phenyl-1,3-oxazol-2-yl)-1-(propan-2-yl)-1H-1,2,3-benzotriazole] | > 316
40 | Cc1ccccc1-c1noc(-c2ccc3c(cnn3C(C)C)c2)n1 [Compound 329, 5-(1-isopropyl-1H-indazol-5-yl)-3-(o-tolyl)-1,2,4-oxadiazole] | < 316
41 | N#Cc1cc(-c2nnc(-c3ccc4[nH]cnc4c3)o2)ccc1NCCF [Compound 358, 5-[5-(1H-1,3-benzo-diazol-5-yl)-1,3,4-oxadiazol-2-yl]-2-[(2-fluoroethyl)amino] benzonitrile] | < 316
